Measurements as given in the supplement of paper PMC7840683.
Where a name gives a salt, the structure may show the parent alone. ± gives the standard deviation of the averaged measurements.

System: HepaRG
Assay: LDH release cytotoxicity, % of total lysis control; higher = more cytotoxic
Settings: 48 h
Summary of the method: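 Percent cytotoxicity was scaled between on-plate vehicle and total lysis controls, then averaged over duplicate wells. The cells were single-lot HepaRG on collagen I-coated 96-well plates, exposed for 48 h to eight-point half-log test chemical series topping at 100 µM in serum-free induction medium with 0.5% DMSO. Total lysis wells got 0.1% Triton X, and LDH in 50 µL spent medium was read as resorufin fluorescence (CytoTox-ONE, Tecan Safire).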

Compound | LDH release cytotoxicity (0.03162 µM) [%] | LDH release cytotoxicity (0.1 µM) [%] | LDH release cytotoxicity (0.3162278 µM) [%] | LDH release cytotoxicity (1 µM) [%] | LDH release cytotoxicity (3.16228 µM) [%] | LDH release cytotoxicity (10 µM) [%] | LDH release cytotoxicity (31.6228 µM) [%] | LDH release cytotoxicity (100 µM) [%] | further results
CCCCOC(=O)CCCCCCCCC(=O)OCCCC [Dibutyl decanedioate] | -1.01 ± 0.4 | -1.61 ± 0.65 | -1.81 ± 0.16 | -2.3 ± 0.41 | -2.91 ± 0.79 | -1.92 ± 0.027 | -1.43 ± 1 | 0.112 ± 0.92 | 
COCCOCCO [Diethylene glycol monomethyl ether] | -0.428 ± 1.3 | -2.12 ± 0.55 | -0.798 ± 0.33 | -1.35 ± 0.45 | -0.999 ± 0.47 | -1.13 ± 0.19 | 0.0217 ± 1 | 1.02 ± 0.39 | 
CC(=O)[O][Hg][c]1ccccc1 [Phenylmercuric acetate] | -1.79 ± 0.027 | -0.0392 ± 0.1 | 3.3 ± 0.71 | 13.6 ± 5 | 23.5 ± 4.7 | 45.48 ± 0.45 | -7.82 ± 0.28 | -8.63 ± 0.18 | 
COC(=O)N(OC)c1ccccc1COc1ccn(-c2ccc(Cl)cc2)n1 [Pyraclostrobin] | -1.44 ± 1.1 | -1.43 ± 0.92 | -1.17 ± 0.68 | -2.24 ± 0.11 | -1.81 ± 0.71 | -0.283 ± 0.49 | 6.12 ± 1.7 | 56.9 ± 7.3 | 
COCc1nnc(-c2ccc[n+]([O-])c2)n1-c1c(Cl)c(Cl)cc2[nH]c(=O)c(=O)[nH]c12 | -1.68 ± 0.083 | -1.55 ± 0.35 | -2.04 ± 0.24 | -2.82 ± 1.1 | -2.03 ± 0.3 | -1.6 ± 0.17 | -1.69 ± 0.83 | -0.641 ± 0.26 | 
CCCCCCCCCCCO [1-Undecanol] |  |  |  |  |  |  |  |  | LDH release cytotoxicity (0.01581 µM): -2.55 ± 0.72%; LDH release cytotoxicity (0.05 µM): -3.97 ± 0.19%; LDH release cytotoxicity (0.1581139 µM): -3.8 ± 1.3%; LDH release cytotoxicity (0.5 µM): -4.64 ± 0.28%; LDH release cytotoxicity (1.5811388 µM): -2.84 ± 0.45%; LDH release cytotoxicity (5 µM): -3.15 ± 0.031%; LDH release cytotoxicity (15.8114 µM): -2.96 ± 1.5%; LDH release cytotoxicity (50 µM): 4.08 ± 2.9%
NC(=O)N1C(=O)C(C(=O)c2cc(Cl)cs2)c2cc(F)c(Cl)cc21 (configuration not stated) | -0.6756 ± 0.0047 | -0.635 ± 1.4 | -0.381 ± 0.96 | -0.761 ± 0.069 | -0.334 ± 0.65 | 1.12 ± 0.053 | 64.6 ± 1 | 50.6 ± 8.4 | 
Cc1c(-c2cccnc2)c2ccccc2n1CCCCC(=O)O | -1.92 ± 0.15 | -0.948 ± 0.94 | -2.28 ± 1.1 | -1.9 ± 1.2 | -1.67 ± 3.2 | -1.54 ± 2.1 | -1.64 ± 0.83 | 4.56 ± 1.8 | 
CCC(=C(c1ccccc1)c1ccc(OCCN(C)C)cc1)c1ccccc1 [Tamoxifen citrate] |  |  |  |  |  |  |  |  | LDH release cytotoxicity (0.02893 µM): -0.702 ± 0.89%; LDH release cytotoxicity (0.0915 µM): -0.863 ± 0.61%; LDH release cytotoxicity (0.289348 µM): -1.43 ± 0.082%; LDH release cytotoxicity (0.915 µM): -1.01 ± 0.67%; LDH release cytotoxicity (2.89348 µM): 0.0489 ± 0.65%; LDH release cytotoxicity (9.15 µM): 0.563 ± 0.037%; LDH release cytotoxicity (28.9348 µM): 9.57 ± 0.34%; LDH release cytotoxicity (91.5 µM): 88.7 ± 7.3%
Nc1nc(=O)c2nc(CNc3ccc(C(=O)NC(CCC(=O)O)C(=O)O)cc3)cnc2[nH]1 (configuration not stated) [Folic acid] | -0.0941 ± 0.85 | -1.11 ± 0.044 | -1.22 ± 0.067 | -1.1 ± 0.086 | -0.966 ± 0.064 | -0.672 ± 0.085 | -0.33 ± 0.12 | 1.64 ± 0.3 | 
CC(Cl)(Cl)C(=O)O [Dalapon] | -1.01 ± 0.44 | -0.953 ± 0.67 | -0.84 ± 0.36 | -0.409 ± 0.058 | -0.505 ± 0.31 | 0.644 ± 1.2 | 1.01 ± 1.3 | 0.962 ± 1.9 | 
CN(C)C(=O)NC1(c2ccccc2)CCN(CCCC2(c3ccc(Cl)c(Cl)c3)CCCN(C(=O)c3ccccc3)C2)CC1 (configuration not stated) |  |  |  |  |  |  |  |  | LDH release cytotoxicity (0.0079057 µM): 0.117 ± 0.015%; LDH release cytotoxicity (0.025 µM): -1.98 ± 0.18%; LDH release cytotoxicity (0.0790569 µM): -1.74 ± 0.42%; LDH release cytotoxicity (0.25 µM): -1.65 ± 0.21%; LDH release cytotoxicity (0.790569 µM): -1.74 ± 0.064%; LDH release cytotoxicity (2.5 µM): -1.23 ± 1%; LDH release cytotoxicity (7.90569 µM): -0.502 ± 1%; LDH release cytotoxicity (25 µM): 77 ± 4.5%
[As]#[In] [Indium arsenide] | 0.449 ± 0.65 | -0.971 ± 1.1 | 0.268 ± 0.68 | -0.269 ± 0.016 | 0.376 ± 0.79 | 0.749 ± 0.43 | 0.141 ± 0.26 | 1.11 ± 0.32 | 
Cc1ccc(N(C)C)cc1 [N,N,4-Trimethylaniline] | -1.35 ± 0.18 | -2.34 ± 0.1 | -1.31 ± 0.2 | -1.01 ± 0.47 | -1.56 ± 1.1 | -0.631 ± 0.84 | 0.0145 ± 0.88 | 1.9 ± 0.59 | 
CCc1ccc(C(=O)NN(C(=O)c2cc(C)cc(C)c2)C(C)(C)C)cc1 [Tebufenozide] | -0.939 ± 1.3 | 0.194 ± 0.33 | -0.662 ± 1.2 | -0.0494 ± 1.4 | -0.0064 ± 0.51 | 0.106 ± 0.49 | 0.645 ± 0.25 | 11.3 ± 0.39 | 
Clc1cccc(C(Cl)(Cl)Cl)n1 [Nitrapyrin] |  | -0.859 ± 0.33 |  | -2.43 ± 0.29 | -2.02 ± 0.78 | -1.29 ± 0.76 | -1.63 ± 1.3 | 1.2 ± 0.065 | LDH release cytotoxicity (0.031623 µM): -0.0337 ± 1.6%; LDH release cytotoxicity (0.316228 µM): -1.7 ± 1.4%
CCOP(=S)(Oc1cnc(C(C)(C)C)nc1)OC(C)C (configuration not stated) [Tebupirimfos] |  | -1.67 ± 1.3 |  | -2.26 ± 0.87 | -2.34 ± 0.48 | -3.02 ± 0.61 | -2.48 ± 1.2 | -2.06 ± 1.2 | LDH release cytotoxicity (0.031623 µM): 0.203 ± 2.2%; LDH release cytotoxicity (0.316228 µM): -2.72 ± 0.73%
C=CCOC(=O)c1ccccc1C(=O)OCC=C [Diallyl phthalate] | 0.139 ± 0.96 | 0.0319 ± 0.41 | -0.423 ± 1.2 | -0.76 ± 0.22 | -0.551 ± 0.21 | 0.184 ± 0.77 | -0.538 ± 0.2 | 0.377 ± 0.38 | 
CC(C)C(=O)Nc1ccc([N+](=O)[O-])c(C(F)(F)F)c1 [Flutamide] | -0.977 ± 0.81 | -1.06 ± 0.19 | -1.63 ± 1.3 | -1.92 ± 1.5 | -1.23 ± 0.22 | 0.0752 ± 0.3 | 2.14 ± 1.3 | 13.6 ± 7.4 | 
